For 34 compounds, RP-LC retention time results are on record in the METLIN SMRT retention time set (Domingo-Almenara et al. 2019).

The series in a line: gradient 5% acetonitrile 3 min, to 50% in 2 min, to 85% in 15 min, held 3 min, 100 µL/min. The settings on record: column: Zorbax Extend-C18 2.1 x 50 mm; eluents: water / acetonitrile, 0.1% formic acid. The method, boiled down: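 Retention times come from adduct peaks that were picked computationally and then checked by hand. The standards, pure and pooled in mixtures of ~100 molecules, were run on a Zorbax Extend-C18 column (2.1 × 50 mm, 1.8 μm) at 100 μL/min with water and acetonitrile, each with 0.1% formic acid. Detection was by quadrupole time-of-flight mass spectrometry in positive and negative ionization mode, with a dead volume of 40 μL and a dwell volume of 900 μL.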
`COc1ccc(C(=O)NC2(c3nc(C)no3)CCCCC2)c(C)c1` showed an RP-LC retention time of 855 s.
Turning to `COc1nc2ccccc2nc1N1CCCC(C(=O)Nc2ccccc2F)C1` (centres undefined), the RP-LC retention time worked out at 1140 s.
The same measure for `Cc1cc(C)n(Cc2ccc(C(=O)NCC3Cn4cccc4C(=O)N3C)o2)n1` (centres undefined): 634 s.
Regarding `O=C(NCc1cccc(Br)c1)C1CCCN(c2ccc(N3CCOCC3)nn2)C1` (centres undefined), the RP-LC retention time is 653 s.
The value for `CCOC(=O)c1c(C)[nH]c(C(=O)N2CCC(CC(=O)N3CCN(C4CCCCC4)CC3)CC2)c1C` was 624 s.
The value for `CC1=C(c2ccc(C)c(C)c2)S(=O)(=O)N=C1N1CCC(NC(=O)C2CCCO2)CC1` (centres undefined) was 788 s; that for `CCOC(=O)C1CCCN(Cc2nc3nc(C)cc(N4CCOCC4)n3n2)C1` (centres undefined) was 576 s.
`Cc1cc2[nH]c(C(=O)Nc3cc(F)ccc3F)c(CN3CCOCC3)c2s1` yielded an RP-LC retention time of 730 s.
As to `CC(C)n1cc(S(=O)(=O)NCc2cccs2)c2cccnc21`, the RP-LC retention time stood at 833 s.
The same measure for `CN1CCN(CCNC(=O)C2CCN(c3nc4ccccc4n(C)c3=O)CC2)CC1`: 588 s.
Compound `Cc1cc(C(=O)NCC(O)c2cccc3ccccc23)c(C)o1` (centres undefined) showed an RP-LC retention time of 801 s.
The value for `N#CC1=C2CCCCC2(O)NC1=O` (centres undefined) was 655 s; that for `CCc1noc2nc(C)n(CC(=O)NCc3ccccc3)c(=O)c12` was 753 s; that for `Cc1noc(C)c1S(=O)(=O)Nc1cc2c3c(c1)CC(=O)N3CCC2` was 672 s.
The value for `Cc1nnc(-c2ccc3ccn(CC(=O)Nc4ncccc4C)c3c2)o1` was 618 s.
The value for `CN1CCn2cc(S(=O)(=O)Nc3cccc(F)c3)cc2C1=O` was 687 s.
As to `CCN1c2ccc(F)cc2C(=O)NC12CCN(C(=O)c1ccc(OC)cc1C)CC2`, the RP-LC retention time came out at 802 s.
`Cc1ccc(F)cc1NC(=O)Cn1nc(N(C)C)c2ccccc2c1=O` came in with an RP-LC retention time of 860 s.
The same measure for `Cc1cc(F)ccc1NC(=O)c1c(O)c2cccnc2n(-c2cccc(F)c2)c1=O`: 1250 s; for `CCCn1cnc2cc(CNC(=O)Cc3c(Cl)cccc3Cl)ccc21`: 666 s.
The same measure for `CCOc1ccc(-c2ccc(=O)n(Cc3nc(-c4ccccn4)no3)n2)cc1`: 813 s; for `CCOc1ccc(C(=O)NCc2ccc3c(c2)Sc2ncccc2C(=O)N3CC)cc1`: 791 s.
The same measure for `CC(C)NC(=O)c1ccc2nc(-c3ccccc3)cn2c1`: 604 s; for `O=C(CN1C(=O)CCc2cc(Br)ccc21)Nc1ccccn1`: 761 s; for `CCNC(=O)C1CCN(c2nc3ncn(CC(=O)Nc4ccc(C)cc4C)c(=O)c3s2)CC1`: 675 s.
In the case of `Cn1ncc(NC(=O)Cc2ccc(Cl)cc2)c(N2CCOCC2)c1=O`, the RP-LC retention time was determined as 772 s.
The value for `O=C(Nc1ccc(F)cc1)Nc1c(-c2ccccc2)nc2ccccn12` was 651 s; that for `COc1ccc(CN2CC3(CCN(S(=O)(=O)C(C)C)CC3)C2=O)cc1` was 787 s; that for `Cc1ccc2oc(C(=O)Nc3ccc(-n4cnnn4)cc3)c(C)c2c1` was 933 s.
With `CN1C(=O)[C@H]2CN(Cc3ccc(F)cc3Cl)C[C@H]2C1=O`, the RP-LC retention time worked out at 642 s.
The value for `O=C(CSc1ncnc2c1cnn2-c1ccccc1)Nc1ccc(OC(F)(F)F)cc1` was 1160 s; that for `Cc1ccccc1C1CCCN1C(=O)c1nn(C)cc1Cl` (centres undefined) was 849 s; that for `CC(=O)Nc1c(C)cc(OCC(=O)O)cc1C` was 649 s.
The value for `CCN1C(=O)c2cc(C(=O)Nc3ccc(C)c(C)c3)nn2CC1(C)C(=O)NC1CCCC1` (centres undefined) was 884 s.
